Like-named read-outs stand apart in the source and are kept apart here.
How the values were obtained:
[1] = directly compressed, control pressure 10 KN; crystal form prepared in Example 8; FIG. 4
Text: The crystal form prepared in the Example 8 of the present invention was directly compressed by a tableting machine, and the control pressure was 10 KN.

[2] = 25° C.

## CCOc1ccc(Cc2cc([C@@H]3O[C@H](CO)[C@@H](O)[C@H](O)[C@H]3O)ccc2Cl)cc1 [Crystal form E, 2-chloro-5-(β-D-glucopyranosyl-1-yl)-4′-ethoxydiphenylmethane]
[1]
  Crystal form transformation under tableting: didn't undergo crystal form transformation
[2]
  Time stable: at least 6 months
[2]; 0 day
  Crystal form: Crystal form E
  Purity: 99.9%
[2]; 1 month
  Crystal form: Crystal form E
  Purity: 99.9%
[2]; 3 months
  Crystal form: Crystal form E
  Purity: 99.9%
[2]; 6 months
  Crystal form: Crystal form E
  Purity: 99.9%
40° C., 0 day
  Crystal form: Crystal form E
  Purity: 99.9%
40° C., 5 days
  Crystal form: Crystal form E
  Purity: 99.9%
40° C., 10 days
  Crystal form: Crystal form E
  Purity: 99.9%
40° C., 30 days
  Crystal form: Crystal form E
  Purity: 99.9%
Lighting (5000 lux), 0 day
  Crystal form: Crystal form E
  Purity: 99.9%
Lighting (5000 lux), 5 days
  Crystal form: Crystal form E
  Purity: 99.9%
Lighting (5000 lux), 10 days
  Crystal form: Crystal form E
  Purity: 99.9%
Lighting (5000 lux), 30 days
  Crystal form: Crystal form E
  Purity: 99.9%
High temperature (40° C.)
  Time stable: at least 30 days
Lighting (5000 Lux)
  Time stable: at least 30 days
